Measured values published in ChEMBL document CHEMBL1129539, “2,4-diamino-5-deaza-6-substituted pyrido[2,3-d]pyrimidine antifolates as potent and selective nonclassical inhibitors of dihydrofolate reductases” (J Med Chem, 1996).

Tests used:
[1] = molecular target: T1, Bifunctional dihydrofolate reductase-thymidylate synthase (Toxoplasma gondii, UniProt Q07422)
T1 sequence (Q07422 whole entry): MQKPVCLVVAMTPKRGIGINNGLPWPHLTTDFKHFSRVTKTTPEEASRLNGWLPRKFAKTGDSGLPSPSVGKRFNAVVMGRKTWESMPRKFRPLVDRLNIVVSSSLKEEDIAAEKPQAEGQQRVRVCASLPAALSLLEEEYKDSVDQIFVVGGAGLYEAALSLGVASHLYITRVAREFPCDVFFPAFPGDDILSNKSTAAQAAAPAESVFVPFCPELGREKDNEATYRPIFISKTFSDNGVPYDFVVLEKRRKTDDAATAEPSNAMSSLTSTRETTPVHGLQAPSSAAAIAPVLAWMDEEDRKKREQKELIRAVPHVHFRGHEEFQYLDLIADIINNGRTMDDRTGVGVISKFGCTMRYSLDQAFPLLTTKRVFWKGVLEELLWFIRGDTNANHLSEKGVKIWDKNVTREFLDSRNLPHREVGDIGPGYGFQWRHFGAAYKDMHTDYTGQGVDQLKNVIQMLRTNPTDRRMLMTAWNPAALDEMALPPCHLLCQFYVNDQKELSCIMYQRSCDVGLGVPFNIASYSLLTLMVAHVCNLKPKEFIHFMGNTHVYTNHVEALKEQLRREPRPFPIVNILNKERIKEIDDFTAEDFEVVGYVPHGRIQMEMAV
Description: Inhibitory activity against Toxoplasma gondii dihydrofolate reductase (in 90 uM dihydrofolic acid)

Dihydrofolate reductase [2] = molecular target: T2, Dihydrofolate reductase (Pneumocystis carinii, UniProt P16184)
T2 sequence (P16184 whole entry): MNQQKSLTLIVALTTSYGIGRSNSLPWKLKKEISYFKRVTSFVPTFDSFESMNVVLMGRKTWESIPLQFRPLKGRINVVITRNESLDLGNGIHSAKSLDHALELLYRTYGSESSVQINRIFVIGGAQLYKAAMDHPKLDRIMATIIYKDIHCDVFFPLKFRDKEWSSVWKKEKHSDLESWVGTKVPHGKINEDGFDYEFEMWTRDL
Description: Inhibitory activity against Pneumocystis carinii dihydrofolate reductase (in 90 uM dihydrofolic acid)

Dihydrofolate reductase [3] = molecular target: T3, Dihydrofolate reductase (Rattus norvegicus, UniProt Q920D2)
T3 sequence (Q920D2 whole entry): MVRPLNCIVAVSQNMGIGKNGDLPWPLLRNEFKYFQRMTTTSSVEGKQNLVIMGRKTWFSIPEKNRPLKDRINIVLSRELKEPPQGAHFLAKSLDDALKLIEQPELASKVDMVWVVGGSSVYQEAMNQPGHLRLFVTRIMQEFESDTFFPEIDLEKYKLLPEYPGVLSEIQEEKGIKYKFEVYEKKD
Description: Inhibitory activity against rat liver dihydrofolate reductase (in 90 uM dihydrofolic acid)

Dihydrofolate reductase [4] = molecular target: T4, Dihydrofolate reductase (Homo sapiens, UniProt P00374); assay: Inhibitory activity against recombinant human dihydrofolate reductase(in 50 uM dihydrofolic acid)
T4 sequence (P00374 whole entry): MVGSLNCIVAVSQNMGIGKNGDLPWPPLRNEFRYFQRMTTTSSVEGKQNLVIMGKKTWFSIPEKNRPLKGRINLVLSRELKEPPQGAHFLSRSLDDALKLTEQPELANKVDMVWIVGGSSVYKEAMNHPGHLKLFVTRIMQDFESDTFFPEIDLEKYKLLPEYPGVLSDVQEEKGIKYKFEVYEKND

[5] = molecular target: T1, Bifunctional dihydrofolate reductase-thymidylate synthase; remark: listed apart in the source
Description: Inhibitory activity against Toxoplasma gondii dihydrofolate reductase (in 50 uM dihydrofolic acid)

Dihydrofolate reductase [6] = molecular target: Dihydrofolate reductase (Lactobacillus casei, UniProt P00381); assay: Inhibitory activity against recombinant lc dihydrofolate reductase(in 50 uM dihydrofolic acid); design: species or system Lacticaseibacillus casei
Dihydrofolate reductase [7] = molecular target: T5, Dihydrofolate reductase (Escherichia coli, UniProt P0ABQ4); assay: Inhibitory activity against recombinant ec dihydrofolate reductase(in 50 uM dihydrofolic acid)
T5 sequence (P0ABQ4 whole entry): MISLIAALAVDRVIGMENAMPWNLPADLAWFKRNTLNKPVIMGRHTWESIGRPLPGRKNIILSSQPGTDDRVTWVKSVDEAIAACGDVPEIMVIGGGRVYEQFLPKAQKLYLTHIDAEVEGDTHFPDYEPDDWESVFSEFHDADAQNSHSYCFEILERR

Dihydrofolate reductase (Lactobacillus casei, UniProt P00381), sequence (P00381 whole entry): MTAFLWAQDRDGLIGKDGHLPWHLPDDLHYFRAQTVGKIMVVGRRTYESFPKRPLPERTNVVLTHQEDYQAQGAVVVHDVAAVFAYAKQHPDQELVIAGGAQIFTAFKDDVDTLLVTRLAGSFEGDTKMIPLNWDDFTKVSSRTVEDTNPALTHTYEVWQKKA

IC50 (Dihydrofolate reductase [2]) | IC50 (Dihydrofolate reductase [3]) | IC50 (Dihydrofolate reductase [4]) | Structure (SMILES) | IC50 [1] | IC50 [5] | IC50 (Dihydrofolate reductase [6]) | IC50 (Dihydrofolate reductase [7])
8.2 µM | 0.43 µM | – | COc1ccc(CNc2cnc3nc(N)nc(N)c3c2)c2ccccc12 | 0.38 µM | – | – | –
24.3 µM | 2.9 µM | – | Nc1nc(N)c2cc(NCc3ccc(Oc4ccccc4)cc3)cnc2n1 | 3.7 µM | – | – | –
– | 2.1 µM | 6.2 µM | Nc1nc(N)c2cc(NCc3ccccc3)cnc2n1 | 0.52 µM | – | – | –
– | 73 µM | – | CCOc1cc(Cc2cnc(N)nc2N)cc(OCC)c1-n1cccc1 [EPIROPRIM] | 0.47 µM | – | – | –
– | – | – | COc1cc(CNc2cnc3nc(N)nc(N)c3c2)cc(OC)c1 | 1.2 µM | – | – | –
– | 1.2 µM | – | COc1cc(OC)c(CNc2cnc3nc(N)nc(N)c3c2)c(OC)c1 | 0.23 µM | – | – | –
0.061 µM | 0.033 µM | – | COc1cc(CN(C)c2cnc3nc(N)nc(N)c3c2)cc(OC)c1OC | 0.014 µM | – | – | –
15.3 µM | 3.24 µM | – | COc1ccc(CNc2cnc3nc(N)nc(N)c3c2)c(OC)c1OC | 0.67 µM | – | – | –
5.5 µM | 1.1 µM | – | COc1cc(OC)c(OC)cc1CNc1cnc2nc(N)nc(N)c2c1 | 0.48 µM | – | – | –
15.4 µM | 0.37 µM | – | COc1ccc2c(CNc3cnc4nc(N)nc(N)c4c3)cccc2c1 | 0.71 µM | – | – | –
0.068 µM | 0.14 µM | 0.7 µM | CN(Cc1ccccc1)c1cnc2nc(N)nc(N)c2c1 | 0.032 µM | 0.035 µM | – | –
1.8 µM | 1.4 µM | – | CN(CCc1ccccc1)c1cnc2nc(N)nc(N)c2c1 | 0.92 µM | – | – | –
0.079 µM | 0.03 µM | 0.53 µM | COc1ccc(CN(C)c2cnc3nc(N)nc(N)c3c2)c(OC)c1OC | 0.026 µM | 0.026 µM | – | –
9.2 µM | 1.27 µM | – | COc1cc(C(C)Nc2cnc3nc(N)nc(N)c3c2)cc(OC)c1OC (stereo unspecified) | 0.194 µM | – | – | –
– | – | – | COc1ccc(OC)c(CNc2cnc3nc(N)nc(N)c3c2)c1 | 0.31 µM | 0.5 µM | – | –
4.8 µM | 1.5 µM | – | COc1ccc(CNc2cnc3nc(N)nc(N)c3c2)cc1OC | 0.73 µM | – | – | –
– | – | – | COc1cc(CNc2cnc3nc(N)nc(N)c3c2)cc(OC)c1OC | 0.35 µM | 1.3 µM | – | –
– | 0.057 µM | 8.5 µM | COc1ccc(OC)c(CN(C)c2cnc3nc(N)nc(N)c3c2)c1 | – | – | 5.7 µM | 0.14 µM
– | 0.072 µM | 2.9 µM | COc1cc(CN(C)c2cnc3nc(N)nc(N)c3c2)cc(OC)c1 | 0.031 µM | 0.029 µM | – | –

Structure (SMILES) | IC50 (Dihydrofolate reductase [2]) | IC50 (Dihydrofolate reductase [3]) | IC50 (Dihydrofolate reductase [4]) | IC50 [1] | IC50 [5] | IC50 (Dihydrofolate reductase [6]) | IC50 (Dihydrofolate reductase [7])
Nc1nc(N)c2cc(NCCc3ccccc3)cnc2n1 | 1.94 µM | 0.28 µM | – | 4.45 µM | – | – | –
CN(Cc1ccc(C(=O)NC(=O)[C@H](N)CCC(=O)O)cc1)c1cnc2nc(N)nc(N)c2c1 | – | – | 0.65 µM | – | – | 0.17 µM | 0.013 µM
Nc1nc(N)c2cc(NCc3cccc4ccccc34)cnc2n1 | 3.9 µM | 0.24 µM | – | 0.98 µM | – | – | –
